Assay results from publication PMC11747885, “Potent inhibitors of the human RNA ligase Rlig1 highlights its role in RNA integrity maintenance under oxidative cellular stress” (Chemical Science, 2025).
Values joined by “and” are separate entries in the source; they are usually repeats but may differ in a detail not shown here. Equal values may be shown once. Marks after values point to notes of the source that are not given here.

Columns and labels:
HEK293 cells [1] = test: Cell viability assay of HEK293 cells treated with inhibitors and menadione; type: cell-based, human; details: for Mean Diff, (Predicted (LS) mean diff,) w/o menadione - w menadione: 2 way ANOVA, Šídák's multiple comparisons test, normalised viability
HEK293 cells [2] = test: RNA integrity analysis of HEK293 cells treated with inhibitors and menadione (TapeStation 28S/18S rRNA); type: cell-based, human; details: 30 μM compound 24 h
[3] = target: T1, human DNA ligase 1 (hLig1) (Homo sapiens, UniProt P18858); test: DNA ligation assay with hLig1 and 47 (compound titration); type: biochemical; details: for Product formation [%] of DNA ligation, hlig1: three replicates
T1 construct: made in house; host or cells: E. coli Rosetta BL21 (DE3), pET28a-hLig1

[4] = target: T1, human DNA ligase 1 (hLig1); test: DNA ligation assay with various hLig1 concentration at constant inhibitor concentration; type: biochemical; details: 10 μM compound, hLig1 titrated (500 nM to 31.3 nM), 30 min 37 °C
HEK293 cells [5] = test: Light-microscopy of inhibitor- and menadione-treated HEK293 cells; type: cell-based, human; details: 30 µM compound 24 h, then menadione 5 h
in vitro = details: human
HEK293 cells [6] = test: Cell viability assay of HEK293 cells treated with inhibitors (CellTiter-Glo)
[7] = Figure 5B, Sigmoidal, 4PL, fit Interrupted

T1 sequence (P18858 whole entry): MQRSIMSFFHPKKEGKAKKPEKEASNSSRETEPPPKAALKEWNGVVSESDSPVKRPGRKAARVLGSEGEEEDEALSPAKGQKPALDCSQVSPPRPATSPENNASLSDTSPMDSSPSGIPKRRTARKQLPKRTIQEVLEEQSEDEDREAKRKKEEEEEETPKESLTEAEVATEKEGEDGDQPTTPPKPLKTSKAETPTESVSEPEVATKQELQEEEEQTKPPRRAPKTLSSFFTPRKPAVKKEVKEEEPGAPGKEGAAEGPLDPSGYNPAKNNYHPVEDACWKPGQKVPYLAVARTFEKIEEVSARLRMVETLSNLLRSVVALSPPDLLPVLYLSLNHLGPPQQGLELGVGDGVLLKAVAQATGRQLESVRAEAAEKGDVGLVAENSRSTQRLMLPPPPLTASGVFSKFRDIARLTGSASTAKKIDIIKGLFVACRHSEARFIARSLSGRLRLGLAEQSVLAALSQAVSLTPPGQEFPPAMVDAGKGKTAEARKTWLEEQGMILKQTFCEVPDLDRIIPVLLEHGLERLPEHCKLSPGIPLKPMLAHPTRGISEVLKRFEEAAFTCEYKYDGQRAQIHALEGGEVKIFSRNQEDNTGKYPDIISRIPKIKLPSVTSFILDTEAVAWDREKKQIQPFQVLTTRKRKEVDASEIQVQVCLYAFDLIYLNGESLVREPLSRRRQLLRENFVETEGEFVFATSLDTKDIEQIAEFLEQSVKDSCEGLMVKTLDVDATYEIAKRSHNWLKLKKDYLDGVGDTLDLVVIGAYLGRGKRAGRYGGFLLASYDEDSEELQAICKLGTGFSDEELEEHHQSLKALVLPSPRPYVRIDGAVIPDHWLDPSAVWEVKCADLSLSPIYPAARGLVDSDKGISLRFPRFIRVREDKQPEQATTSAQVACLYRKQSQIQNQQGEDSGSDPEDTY

What does the source list for `Nc1nccc(Nc2ccc(NC(=O)c3ccc(Nc4ncnc5ccccc45)cc3)cc2)n1` [Compound 47]?
Cell viability raw signal, technical replicates (HEK293 cells [1]; 15 µM compound, w Menadione (40µM), 20240508 plate 012): 20771 and 17972 and 20655 and 18810; Cell viability raw signal, technical replicates (HEK293 cells [1]; 15 µM compound, w Menadione (40µM), 20240508 plate 013): 17686 and 14464 and 20096 and 19671; Cell viability raw signal, technical replicates (HEK293 cells [1]; 15 µM compound, w Menadione (40µM), 20240515 plate 014): 22870 and 22437 and 28706 and 27891; Cell viability raw signal, technical replicates (HEK293 cells [1]; 15 µM compound, w Menadione (40µM), 20240515 plate 015): 23978 and 24873 and 26687 and 23492; Mean Diff, (Predicted (LS) mean diff,) w/o menadione - w menadione (HEK293 cells [1]; 30 µM compound): 26.18; Cell viability raw signal, technical replicates (HEK293 cells [1]; 30 µM compound, w Menadione (40µM), 20240508 plate 012): 17555 and 22131 and 18922 and 17419; Cell viability raw signal, technical replicates (HEK293 cells [1]; 30 µM compound, w Menadione (40µM), 20240508 plate 013): 13658 and 13606 and 15514 and 16155; Cell viability raw signal, technical replicates (HEK293 cells [1]; 30 µM compound, w Menadione (40µM), 20240515 plate 014): 15897 and 16266 and 21346 and 20584; Cell viability raw signal, technical replicates (HEK293 cells [1]; 30 µM compound, w Menadione (40µM), 20240515 plate 015): 19537 and 20556 and 18511 and 24331; Cell viability raw signal, technical replicates (HEK293 cells [1]; 30 µM compound, w/o Menadione, 20240508 plate 012): 338540 and 348450 and 357680 and 361520; Mean Diff, (Predicted (LS) mean diff,) w/o menadione - w menadione (HEK293 cells [1]; 60 µM compound): 29.66; Cell viability raw signal, technical replicates (HEK293 cells [1]; 60 µM compound, w Menadione (40µM), 20240508 plate 012): 68212* and 77972* and 10202 and 14953; Cell viability raw signal, technical replicates (HEK293 cells [1]; 60 µM compound, w Menadione (40µM), 20240508 plate 013): 97500* and 94661* and 7245 and 13149; Cell viability raw signal, technical replicates (HEK293 cells [1]; 60 µM compound, w Menadione (40µM), 20240515 plate 014): 23954 and 23288 and 10147 and 14983; Cell viability raw signal, technical replicates (HEK293 cells [1]; 60 µM compound, w Menadione (40µM), 20240515 plate 015): 24869 and 20588 and 9258 and 15604; Cell viability raw signal, technical replicates (HEK293 cells [1]; 60 µM compound, w/o Menadione, 20240508 plate 012): 309000 and 323530 and 287920 and 324080; Cell viability raw signal, technical replicates (HEK293 cells [1]; 60 µM compound, w/o Menadione, 20240508 plate 013): 294060 and 325150 and 301550 and 314910; Cell viability raw signal, technical replicates (HEK293 cells [1]; 60 µM compound, w/o Menadione, 20240515 plate 014): 295270 and 285610 and 291450 and 291110; Cell viability raw signal, technical replicates (HEK293 cells [1]; 60 µM compound, w/o Menadione, 20240515 plate 015): 292640 and 290230 and 291370 and 285220; cell viability under oxidative stress (in words) (HEK293 cells [1]; inhibitor 24 h, then 40 μM menadione 5 h): significantly reduced viability only when the cells were stressed; 28S/18S ratio (HEK293 cells [2]; Menadione 0 μM): 3.0; 28S/18S ratio (HEK293 cells [2]; Menadione 40 μM 5 h): 2.1; 28S/18S ratio (HEK293 cells [2]; Menadione 60 μM 5 h): 0.9; effect on DNA ligase activity (in words) ([3]; 1:2 dilution series starting from 30 μM compound, 500 nM hLig1, 20 min 37 °C): No effect; Bottom (best-fit value), hlig1 [3, 7]: -4.954; HillSlope (best-fit value), hlig1 [3, 7]: -3.033; Span (best-fit value), hlig1 [3, 7]: 97.9; Top (best-fit value), hlig1 [3, 7]: 92.94; LogIC50 (best-fit value), hlig1 ([3]; Figure 5B, Sigmoidal, 4PL, fit Interrupted, log of µM): 1.72; Product formation [%] of DNA ligation, hlig1 ([3]; log (47 [µM]) 0.273001): -3.458% and -4.463% and -2.953%; Product formation [%] of DNA ligation, hlig1 ([3]; log (47 [µM]) 0.574031): -2.567% and -4.108% and -2.802%; Product formation [%] of DNA ligation, hlig1 ([3]; log (47 [µM]) 0.875061): -2.276% and -3.138% and -3.06%; Product formation [%] of DNA ligation, hlig1 ([3]; log (47 [µM]) 1.17609): 0.5458% and -2.902% and -1.203%; Product formation [%] of DNA ligation, hlig1 ([3]; log (47 [µM]) 1.47712): 11.4249% and 9.911% and 18.8699%; Product formation [%] of DNA ligation, hlig1 ([3]; log (47 [µM]) -0.0280287): -3.67% and -4.363% and -3.165%; Product formation [%] of DNA ligation, hlig1 ([3]; log (47 [µM]) -0.329059): -3.453% and -3.785% and -3.456%; Product formation [%] of DNA ligation, hlig1 ([3]; log (47 [µM]) -0.630089): -3.095% and -4.479% and -2.914%; effect on hLig1 activity (in words) [4]: least impact on hLig1 activity; cell morphology (HEK293 cells [5]): poor adherence and cell shrinkage; viability at 24 h, 0.234375 µM (in vitro): 109%; viability at 24 h, 0.46875 µM (in vitro): 101%; viability at 24 h, 0.9375 µM (in vitro): 102%; viability at 24 h, 1.875 µM (in vitro): 102%; viability at 24 h, 3.75 µM (in vitro): 97.2%; viability at 24 h, 7.5 µM (in vitro): 97.9%; viability at 24 h, 15 µM (in vitro): 93%; viability at 24 h, 30 µM (in vitro): 86%; cytotoxicity (in words) (HEK293 cells [6]; HEK293, 24 h, up to 30 μM): no detectable cytotoxicity; IC50 (Figure 3D: EC50 values for plot; log(inhibitor) vs. response -- Variable slope (four parameters)) (HEK293 cells [6]; HEK293 cell viability, fit per plate (3 plates, 4 technical replicates each), highest tested concentration 30 µM): 163.557 µM and 35.63 µM and 278.968 µM; LogIC50 (log(inhibitor) vs. response -- Variable slope (four parameters)) (HEK293 cells [6]; HEK293 cell viability, fit per plate (3 plates, 4 technical replicates each), log of [µM]): 2.214 and 1.552 and 2.446; EC50 (HEK293 cells [6]; Homo sapiens, HEK293, 24 h): > 30 µM
